Reference: publication PMC5340193 (ChemMedChem, 2017)
Like-named read-outs stand apart in the source and are kept apart here. Starred links: 1 amine or outer side, 2 acyl side, 3 side chain; linkers in the order of their positions; H or OH if unused. Non-standard residues stand in square brackets, D forms with d. Residues, ends and D or L forms follow the SMILES beside them. His(π-(CH2)8Ph) = N[C@@H](Cc1cncn1CCCCCCCCc1ccccc1)C(=O)O; X2 = O=C([C@@H](N[*:1])[C@@H](CCc1ccccc1)CP(=O)(O)O)[*:2]; X1 = CC(C)[C@@H](CP(=O)(O)O)[C@H](N[*:1])C(=O)[*:2]; X3 = CC[C@@H](CP(=O)(O)O)[C@H](N[*:1])C(=O)[*:2]; Abu(4-PO3H2) = N[C@@H](CCP(=O)(O)O)C(=O)O

Columns and labels:
Plk1 = conditions: cited from earlier work
Plk3 PBD = target: T1, Plk3 PBD (Homo sapiens, UniProt Q9H4B4); assay type: binding
T1 sequence (Q9H4B4 335-646 limits assumed): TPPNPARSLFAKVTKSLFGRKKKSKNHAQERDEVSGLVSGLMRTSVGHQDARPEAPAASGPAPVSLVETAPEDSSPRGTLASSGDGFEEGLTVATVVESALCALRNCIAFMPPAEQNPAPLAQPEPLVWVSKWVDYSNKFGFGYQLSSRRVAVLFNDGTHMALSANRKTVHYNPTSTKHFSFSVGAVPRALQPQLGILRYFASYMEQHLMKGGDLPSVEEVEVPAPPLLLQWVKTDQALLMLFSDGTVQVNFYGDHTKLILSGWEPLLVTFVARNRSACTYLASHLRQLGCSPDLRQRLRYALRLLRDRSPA

Plk2 PBD = target: T2, Plk2 PBD (Homo sapiens, UniProt Q9NYY3); assay type: binding
T2 sequence (Q9NYY3 355-685 limits assumed): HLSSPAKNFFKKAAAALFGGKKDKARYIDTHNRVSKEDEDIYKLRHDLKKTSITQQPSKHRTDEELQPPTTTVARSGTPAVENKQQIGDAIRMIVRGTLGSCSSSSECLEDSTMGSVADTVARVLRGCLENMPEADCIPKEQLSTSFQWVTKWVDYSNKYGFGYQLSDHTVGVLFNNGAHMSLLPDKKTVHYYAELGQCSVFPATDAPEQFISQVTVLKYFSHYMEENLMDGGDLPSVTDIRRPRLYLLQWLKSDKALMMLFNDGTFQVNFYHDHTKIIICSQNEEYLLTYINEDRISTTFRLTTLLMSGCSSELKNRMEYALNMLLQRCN

Plk1 PBD = Plk1 PBD (Homo sapiens, UniProt P53350); assay type: binding
Plk1 PBD, sequence (P53350 326-603 limits assumed): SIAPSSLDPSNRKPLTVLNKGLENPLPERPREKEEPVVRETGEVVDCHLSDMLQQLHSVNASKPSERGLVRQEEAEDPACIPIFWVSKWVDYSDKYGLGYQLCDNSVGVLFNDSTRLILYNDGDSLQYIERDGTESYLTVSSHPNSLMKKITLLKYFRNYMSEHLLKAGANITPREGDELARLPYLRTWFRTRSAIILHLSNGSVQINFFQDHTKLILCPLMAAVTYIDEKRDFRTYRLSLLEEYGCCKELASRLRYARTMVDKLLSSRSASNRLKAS

full-length Plk1 = full-length Plk1 (Homo sapiens, UniProt P53350); assay type: binding; conditions: for more potent than the parent pThr-containing peptide 5 and its Pmab-containing congener 7 / loss of potency of the Ser to Ala variants relative to 21 and 23: full-length Plk1 competitive ELISA
full-length Plk1, sequence (P53350 whole entry): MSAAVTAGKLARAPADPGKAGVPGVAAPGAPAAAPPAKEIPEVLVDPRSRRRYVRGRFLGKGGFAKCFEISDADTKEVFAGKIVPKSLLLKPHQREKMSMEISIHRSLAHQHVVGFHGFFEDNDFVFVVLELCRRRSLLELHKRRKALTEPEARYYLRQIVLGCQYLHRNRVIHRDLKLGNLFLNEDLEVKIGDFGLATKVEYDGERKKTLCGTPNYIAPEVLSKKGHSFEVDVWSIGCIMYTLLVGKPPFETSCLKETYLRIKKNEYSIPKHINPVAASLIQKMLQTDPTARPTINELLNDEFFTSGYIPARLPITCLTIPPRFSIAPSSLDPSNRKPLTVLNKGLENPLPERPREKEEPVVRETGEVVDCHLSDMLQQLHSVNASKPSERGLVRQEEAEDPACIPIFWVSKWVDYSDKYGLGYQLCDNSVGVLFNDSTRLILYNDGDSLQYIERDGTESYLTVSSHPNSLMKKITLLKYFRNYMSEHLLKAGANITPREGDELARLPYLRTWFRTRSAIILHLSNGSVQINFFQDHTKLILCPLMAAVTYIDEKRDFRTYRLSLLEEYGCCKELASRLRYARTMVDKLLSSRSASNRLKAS

[1] = full-length Plk1, competitive ELISA, average ± SEM (n = 5)

SMILES | IC50 (Plk3 PBD) [µM] | IC50 (Plk2 PBD) [µM] | IC50 (Plk1 PBD) [µM] | IC50 (full-length Plk1) [µM] | also measured
CC(=O)N1CCC[C@H]1C(=O)N[C@@H](CC(C)C)C(=O)N[C@@H](Cc1cncn1CCCCCCCCc1ccccc1)C(=O)N[C@@H](CO)C(=O)N[C@H](C(N)=O)[C@@H](C)OP(=O)(O)O [compound 5] |  |  |  |  | IC50 values in competitive ELISA assays against Plk1 (Plk1): low-nanomolar
CC(=O)N1CCC[C@H]1C(=O)N[C@@H](CC(C)C)C(=O)N[C@@H](Cc1cncn1CCCCCCCCc1ccccc1)C(=O)N[C@@H](CO)C(=O)N[C@H](C(N)=O)[C@@H](C)CP(=O)(O)O [compound 7, reference compound] | 4.4 |  |  |  | inhibitory potency on replacement of the pThr residue in 5 with Pmab (Plk1): complete retention of inhibitory potency
CC(=O)N1CCC[C@H]1C(=O)N[C@@H](CC(C)C)C(=O)N[C@@H](Cc1cncn1CCCCCCCCc1ccccc1)C(=O)N[C@@H](CO)C(=O)N[C@@H](CCP(=O)(O)O)C(N)=O [compound 19] (Ac-PL[His(π-(CH2)8Ph)]S[Abu(4-PO3H2)]-NH2; N-terminus and C-terminus assumed) | 8.8 | 5.4 | 0.011 ± 0.001 | 1.2 ± 0.3 | 
CC[C@@H](CP(=O)(O)O)[C@H](NC(=O)[C@H](CO)NC(=O)[C@H](Cc1cncn1CCCCCCCCc1ccccc1)NC(=O)[C@H](CC(C)C)NC(=O)[C@@H]1CCCN1C(C)=O)C(N)=O [compound 20] (Ac-PL[His(π-(CH2)8Ph)]S[X3]-NH2; N-terminus and C-terminus assumed) |  |  |  | 0.2 ± 0.06 | 
CC(=O)N1CCC[C@H]1C(=O)N[C@@H](CC(C)C)C(=O)N[C@@H](Cc1cncn1CCCCCCCCc1ccccc1)C(=O)N[C@@H](CO)C(=O)N[C@H](C(N)=O)[C@H](CP(=O)(O)O)C(C)C [compound 21] (Ac-PL[His(π-(CH2)8Ph)]S[X1]-NH2; N-terminus and C-terminus assumed) | 1.1 | 0.36 ± 0.03 | 0.007 ± 0.001 | 0.06 ± 0.02 | more potent than the parent pThr-containing peptide 5 and its Pmab-containing congener 7 (full-length Plk1): approximately 3 fold
CC(=O)N1CCC[C@H]1C(=O)N[C@@H](CC(C)C)C(=O)N[C@@H](Cc1cncn1CCCCCCCCc1ccccc1)C(=O)N[C@@H](CO)C(=O)N[C@H](C(N)=O)[C@@H](CCc1ccccc1)CP(=O)(O)O [compound 23] (Ac-PL[His(π-(CH2)8Ph)]S[X2]-NH2; N-terminus and C-terminus assumed) | 1.2 | 0.49 ± 0.05 | 0.004 ± 0.001 |  | more potent than the parent pThr-containing peptide 5 and its Pmab-containing congener 7 (full-length Plk1): approximately 3 fold
CC(=O)N1CCC[C@H]1C(=O)N[C@@H](CC(C)C)C(=O)N[C@@H](Cc1cncn1CCCCCCCCc1ccccc1)C(=O)N[C@@H](C)C(=O)N[C@H](C(N)=O)[C@H](CP(=O)(O)O)C(C)C [compound 24] (Ac-PL[His(π-(CH2)8Ph)]A[X1]-NH2; N-terminus and C-terminus assumed) |  |  |  |  | IC50 (full-length Plk1; [1]): 11 ± 3 µM; loss of potency of the Ser to Ala variants relative to 21 and 23 (full-length Plk1): approximate two orders-of-magnitude loss of potency
CC(=O)N1CCC[C@H]1C(=O)N[C@@H](CC(C)C)C(=O)N[C@@H](Cc1cncn1CCCCCCCCc1ccccc1)C(=O)N[C@@H](C)C(=O)N[C@H](C(N)=O)[C@@H](CCc1ccccc1)CP(=O)(O)O [compound 25] (Ac-PL[His(π-(CH2)8Ph)]A[X2]-NH2; N-terminus and C-terminus assumed) |  |  |  |  | IC50 (full-length Plk1; [1]): 70 ± 14 µM; loss of potency of the Ser to Ala variants relative to 21 and 23 (full-length Plk1): approximate two orders-of-magnitude loss of potency
